Experimental data reported in patent publication US20110105457A1, “HETEROCYCLIC COMPOUND HAVING INHIBITORY ACTIVITY ON PI3K” (SHIONOGI & CO., LTD., priority 2008, published 2011).

Tests used:
[1] = target: T1, PI-3 kinase γ (Homo sapiens, UniProt P48736); experiment: PI3Kγ inhibitory activity, PI3-kinase HTRF assay (Millipore); assay type: biochemical; conditions: 0.5 h; compound 50 μM; read-out: Inhibition ratio % (50 μM)
How it was run: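 HTRF assay: PI3Kγ preincubated 10 min with compound and PIP2 substrate in MgCl2/DTT buffer, then reaction started with ATP and run 30 min at room temperature before EDTA/biotin-PIP3 quench. Read after 18 h with Eu anti-GST/GST-PH domain/APC-streptavidin as 665/620 nm ratio; inhibition relative to no-compound (100%) and no-enzyme (0%) wells.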

[2] = target: T1, PI-3 kinase γ; experiment: PI3Kγ inhibitory activity (Ki value), HTRF assay; assay type: biochemical; conditions: calculated from IC50, test ATP 10 μM
Method: The PI3Kγ inhibitory activity (Ki value) of a compound was evaluated according to the following procedure.
5 μL of a compound solution comprising 10% DMSO and 200 μM of a compound was changed to 5 μL of a compound solution comprising 10% DMSO and 200, 64, 20, 6.4, 2, 0.64, or 0.20 μM of the compound (optionally, this is diluted to a lower concentration). By a method similar to the method for measuring PI3Kγ inhibitory activity, inhibition ratios were measured in the presence of the compound of 50, 16, 5, 1.6, 0.5, 0.16, and 0.05 μM (optionally, a lower concentration), and then an IC50 value was calculated by a logistic approximation method, or the linear regression method using two concentrations that across 50% inhibition. Separately, 5 μL of 40 μM ATP/10 mM MgCl2/5 mM DTT at the time of the start of a reaction in the absence of a compound was changed to 5 μL of 80, 40, 20, 10, 5, 2.5, 1.25, or 0.625 μM ATP/10 mM MgCl2/5 mM DTT, and then ratios of HTRF was measured by a similar method. The value of subtracting an HTRF ratio at each ATP concentration from an HTRF ratio in the absence of PI-3 kinase γ was defined as a value of multiplying reaction rate v by a constant to calculate the Michaelis-Menten constant Km by the Lineweaver-Burk plot method. A Ki value of a compound was calculated by the following formula.

[3] = Solubility test; assay type: physicochemical; conditions: 25 °C, fassgf or other biorelevant, kinetic from dmso stock, artificial intestinal juice pH 6.8, 1% DMSO, 25 degrees Celsius
Method: 10 mM compound solution was prepared using DMSO, and then 6 μL of the compound solution was added to 594 μL of artificial intestinal juice in pH 6.8 (to 250 mL of 0.2 mol/L potassium dihydrogen phosphate reagent solution was added 118 mL of 0.2 mol/L NaOH reagent solution and water to provide a final volume of 1000 mL). After standing at 25 degrees Celsius for 16 hours, the mixed solution was filtrated with suction. The filtrate was diluted twice with methanol/water (1/1), and then a concentration in the filtration was measured with HPLC or LC/MS/MS by the absolute calibration method.

[4] = target: T2, CYP1A2 (Homo sapiens, UniProt P05177); experiment: CYP inhibition test, pooled human liver microsome, O-de-ethylation of 7-ethoxyresorufin; assay type: in vitro ADME
T2 construct: Using a pooled human liver microsome commercially available; from tissue; host or cells: pooled human liver microsomes
T2 sequence (P05177 1-516): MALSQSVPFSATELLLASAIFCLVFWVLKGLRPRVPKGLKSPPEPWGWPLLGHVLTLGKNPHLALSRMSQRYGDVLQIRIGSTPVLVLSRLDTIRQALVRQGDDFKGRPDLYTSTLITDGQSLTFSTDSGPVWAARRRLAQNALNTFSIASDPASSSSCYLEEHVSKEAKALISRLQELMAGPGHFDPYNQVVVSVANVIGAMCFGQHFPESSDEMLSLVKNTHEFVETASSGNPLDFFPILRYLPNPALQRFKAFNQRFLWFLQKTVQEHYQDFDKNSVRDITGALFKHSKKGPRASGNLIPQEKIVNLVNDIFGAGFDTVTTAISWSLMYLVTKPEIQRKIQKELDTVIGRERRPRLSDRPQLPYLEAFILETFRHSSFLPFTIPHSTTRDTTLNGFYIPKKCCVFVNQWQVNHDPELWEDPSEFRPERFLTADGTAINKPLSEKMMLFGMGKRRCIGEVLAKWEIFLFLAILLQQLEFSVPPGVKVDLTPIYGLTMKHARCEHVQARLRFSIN
Method: (§1) Using a pooled human liver microsome commercially available, and selecting as indexes O-de-ethylation of 7-ethoxyresorufin (CYP1A2), methyl-hydroxylation of tolbutamide (CYP2C9), 4′-hydroxylation of mephenyloin (CYP2C19), O-demethylation of dextromethorphan (CYP2D6), and hydroxylation of terfenadine (CYP3A4), which are typical substrate metabolic reactions of human main CYP5 molecular species (CYP1A2, 2C9, 2C19, 2D6, and 3A4), it was evaluated in what degree the amount of each metabolite produced was inhibited by a test compound.
(§2) The reaction condition is as follows: substrate, 0.5 μmol/L of ethoxyresorufin (CYP1A2), 100 μmol/L of tolbutamide (CYP2C9), 50 μmol/L of S-mephenyloin (CYP2C19), 5 μmol/L of dextromethorphan (CYP2D6), and 1 μmol/L of terfenadine (CYP3A4); reaction time, 15 minutes; reaction temperature, 37 degrees Celsius; enzyme, pooled human liver microsome 0.2 mg protein/mL; test drug concentration, 1, 5, 10, and 20 μmol/L (4 points).
(§3) To a 96-well plate was added five kinds of substrates, a human liver microsome, and a test drug in 50 mM Hepes buffer solution as a reaction solution in the aforementioned constitution. A coenzyme NADPH was added to start a metabolic reaction, which is an index. After reacting at 37 degrees Celsius for 15 minutes, a solution of methanol/acetonitrile (1/1 (v/v)) was added to quench the reaction. After centrifugation at 3000 rpm for 15 minutes, resorufine (CYP1A2 metabolite) in the supernatant was quantitated with a fluorescence multilabel counter, and hydroxylated tolbutamide (CYP2C9 metabolite), 4′-hydroxylated mephenyloin (CYP2C19 metabolite), […] (CYP2D6 metabolite), terfenadine in alcohol form (CYP3A4 metabolite) were quantitated with LC/MS/MS.
(§4) The case that only DMSO, a solvent which dissolved a drug, was added to a reaction system was defined as a control (100%). The remaining activity (%) at each concentration in cases that a test drug solution was added was calculated, and then IC50 was calculated with a concentration and an inhibition ratio by an inverse estimation using a logistic model.

[5] = target: T3, CYP2C9 (Homo sapiens, UniProt P11712); experiment: CYP inhibition test, pooled human liver microsome, methyl-hydroxylation of tolbutamide; assay type: in vitro ADME
T3 construct: Using a pooled human liver microsome commercially available; from tissue; host or cells: pooled human liver microsomes
Method: as §1, §2, §3, §4

[6] = target: T4, CYP2C19 (Homo sapiens, UniProt P33261); experiment: CYP inhibition test, pooled human liver microsome, 4′-hydroxylation of mephenyloin; assay type: in vitro ADME; conditions: S-mephenyloin
T4 construct: Using a pooled human liver microsome commercially available; from tissue; host or cells: pooled human liver microsomes
Method: as §1, §2, §3, §4

[7] = target: T5, CYP2D6 (Homo sapiens, UniProt P10635); experiment: CYP inhibition test, pooled human liver microsome, O-demethylation of dextromethorphan; assay type: in vitro ADME
T5 construct: Using a pooled human liver microsome commercially available; from tissue; host or cells: pooled human liver microsomes
Method: as §1, §2, §3, §4

[8] = target: T6, CYP3A4 (Homo sapiens, UniProt P08684); experiment: CYP inhibition test, pooled human liver microsome, hydroxylation of terfenadine; assay type: in vitro ADME
T6 construct: Using a pooled human liver microsome commercially available; from tissue; host or cells: pooled human liver microsomes
Method: as §1, §2, §3, §4

T5 sequence (P10635 whole entry): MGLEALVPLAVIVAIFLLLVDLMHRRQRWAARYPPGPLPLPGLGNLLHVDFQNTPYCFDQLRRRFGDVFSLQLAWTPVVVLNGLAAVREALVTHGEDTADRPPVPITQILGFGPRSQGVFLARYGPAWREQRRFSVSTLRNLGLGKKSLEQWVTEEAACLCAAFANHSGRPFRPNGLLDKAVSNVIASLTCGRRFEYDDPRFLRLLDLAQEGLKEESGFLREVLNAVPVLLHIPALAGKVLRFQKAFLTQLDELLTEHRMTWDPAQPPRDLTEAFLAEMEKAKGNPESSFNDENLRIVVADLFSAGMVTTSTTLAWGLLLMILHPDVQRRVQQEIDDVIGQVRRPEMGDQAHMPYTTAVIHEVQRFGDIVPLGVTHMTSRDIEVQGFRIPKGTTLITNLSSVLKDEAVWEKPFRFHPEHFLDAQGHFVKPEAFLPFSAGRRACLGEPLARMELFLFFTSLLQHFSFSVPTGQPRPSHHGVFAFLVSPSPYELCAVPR
T4 sequence (P33261 whole entry): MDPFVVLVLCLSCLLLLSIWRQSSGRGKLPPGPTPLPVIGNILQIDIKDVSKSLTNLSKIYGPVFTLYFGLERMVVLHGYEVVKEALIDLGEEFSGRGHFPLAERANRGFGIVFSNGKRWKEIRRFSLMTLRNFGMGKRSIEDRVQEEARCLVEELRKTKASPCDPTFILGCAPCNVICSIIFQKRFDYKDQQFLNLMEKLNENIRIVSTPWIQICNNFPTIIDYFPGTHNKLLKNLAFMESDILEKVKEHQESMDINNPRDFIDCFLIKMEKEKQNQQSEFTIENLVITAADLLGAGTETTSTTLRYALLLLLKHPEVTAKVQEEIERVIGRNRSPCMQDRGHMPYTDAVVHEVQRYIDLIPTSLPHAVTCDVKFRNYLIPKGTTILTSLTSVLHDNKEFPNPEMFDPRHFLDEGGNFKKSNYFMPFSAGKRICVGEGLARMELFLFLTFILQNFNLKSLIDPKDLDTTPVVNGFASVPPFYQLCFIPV
T1 sequence (P48736 whole entry, the tested form may be a part): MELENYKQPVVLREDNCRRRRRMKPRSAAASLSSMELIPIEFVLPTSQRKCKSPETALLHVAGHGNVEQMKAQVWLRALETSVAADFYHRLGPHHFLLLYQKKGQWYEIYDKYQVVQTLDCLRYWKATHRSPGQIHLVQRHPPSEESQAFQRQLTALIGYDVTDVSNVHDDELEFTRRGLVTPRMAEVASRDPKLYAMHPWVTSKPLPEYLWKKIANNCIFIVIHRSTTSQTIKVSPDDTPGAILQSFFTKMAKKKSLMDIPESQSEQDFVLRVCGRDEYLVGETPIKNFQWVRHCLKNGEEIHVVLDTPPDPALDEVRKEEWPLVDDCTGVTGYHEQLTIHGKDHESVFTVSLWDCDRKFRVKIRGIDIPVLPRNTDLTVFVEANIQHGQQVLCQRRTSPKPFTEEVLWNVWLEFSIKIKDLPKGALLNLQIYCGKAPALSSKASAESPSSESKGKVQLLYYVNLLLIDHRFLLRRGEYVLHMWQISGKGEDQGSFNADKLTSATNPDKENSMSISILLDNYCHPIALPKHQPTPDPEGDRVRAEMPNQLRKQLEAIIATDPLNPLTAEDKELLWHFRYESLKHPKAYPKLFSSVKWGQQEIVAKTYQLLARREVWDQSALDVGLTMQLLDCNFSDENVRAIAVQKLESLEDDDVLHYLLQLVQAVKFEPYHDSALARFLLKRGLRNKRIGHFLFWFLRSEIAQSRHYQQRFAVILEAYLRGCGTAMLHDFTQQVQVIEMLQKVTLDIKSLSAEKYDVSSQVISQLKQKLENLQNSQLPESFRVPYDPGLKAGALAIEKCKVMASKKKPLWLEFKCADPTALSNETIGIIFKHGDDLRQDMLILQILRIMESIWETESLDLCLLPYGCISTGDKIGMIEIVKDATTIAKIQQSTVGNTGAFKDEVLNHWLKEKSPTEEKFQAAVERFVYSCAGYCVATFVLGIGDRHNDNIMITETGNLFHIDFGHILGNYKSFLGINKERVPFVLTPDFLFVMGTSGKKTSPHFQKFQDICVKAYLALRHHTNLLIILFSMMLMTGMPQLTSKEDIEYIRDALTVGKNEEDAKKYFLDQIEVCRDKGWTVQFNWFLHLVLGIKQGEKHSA
T3 sequence (P11712 whole entry): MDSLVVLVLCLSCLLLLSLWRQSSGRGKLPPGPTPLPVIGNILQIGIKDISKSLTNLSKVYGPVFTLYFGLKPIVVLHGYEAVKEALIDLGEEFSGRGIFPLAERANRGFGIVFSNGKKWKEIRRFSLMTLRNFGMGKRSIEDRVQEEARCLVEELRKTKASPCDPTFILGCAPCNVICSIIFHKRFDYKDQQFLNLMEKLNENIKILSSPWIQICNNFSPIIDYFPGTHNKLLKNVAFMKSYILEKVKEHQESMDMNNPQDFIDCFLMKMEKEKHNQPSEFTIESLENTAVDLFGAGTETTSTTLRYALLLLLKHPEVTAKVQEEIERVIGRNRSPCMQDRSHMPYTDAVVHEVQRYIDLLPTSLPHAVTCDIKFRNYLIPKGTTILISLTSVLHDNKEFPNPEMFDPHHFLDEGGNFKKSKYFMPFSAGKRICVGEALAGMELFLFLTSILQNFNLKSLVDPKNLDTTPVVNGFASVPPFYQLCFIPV
T6 sequence (P08684 whole entry): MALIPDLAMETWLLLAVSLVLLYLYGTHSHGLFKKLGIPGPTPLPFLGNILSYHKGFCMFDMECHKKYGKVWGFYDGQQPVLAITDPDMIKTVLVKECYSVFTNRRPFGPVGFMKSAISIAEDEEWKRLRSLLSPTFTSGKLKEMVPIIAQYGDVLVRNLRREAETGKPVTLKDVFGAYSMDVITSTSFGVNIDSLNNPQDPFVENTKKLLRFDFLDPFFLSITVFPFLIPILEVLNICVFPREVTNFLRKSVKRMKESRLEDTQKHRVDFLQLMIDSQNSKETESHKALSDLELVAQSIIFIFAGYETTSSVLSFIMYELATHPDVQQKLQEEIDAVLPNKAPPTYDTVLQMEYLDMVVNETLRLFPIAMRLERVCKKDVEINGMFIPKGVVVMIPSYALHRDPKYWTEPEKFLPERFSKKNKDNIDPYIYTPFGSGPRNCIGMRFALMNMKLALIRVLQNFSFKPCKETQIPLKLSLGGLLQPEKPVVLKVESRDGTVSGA

Row | inhibition at 50 µM [1] | Ki [2] | solubility at 16 h [3] | IC50 [4] | IC50 [5] | IC50 [6] | IC50 [7] | IC50 [8] | Structure (SMILES)
1 | 85% | 0.046 µM | > 50 µM |  |  |  |  |  | COc1cccc(-c2ccc3nc(NC(=O)NCC(=O)O)cn3n2)c1 [Compound I-120]
2 | 83% | 0.052 µM | > 50 µM |  |  |  |  |  | CNC(=O)Nc1cn2nc(-c3cncc(OC)c3)ccc2n1 [Compound I-144]
3 | 89% | 0.074 µM | > 50 µM | > 20 µM | > 20 µM | > 20 µM | > 20 µM | > 20 µM | COc1cncc(-c2ccc3nc(NC(=O)NCC(=O)O)cn3n2)c1 [Compound I-224]
4 | 73% |  |  | > 20 µM | > 20 µM | > 20 µM | > 20 µM | > 20 µM | COc1cccc(-c2ccc3nc(NC(=O)NCCC(=O)O)cn3n2)c1 [Compound I-260]
5 | 61% |  |  | > 20 µM | > 20 µM | > 20 µM | > 20 µM | > 20 µM | COc1cccc(-c2ccc3nc(NC(=O)NCc4cc(=O)[nH]o4)cn3n2)c1 [Compound I-267]
6 | 74% |  | > 50 µM | > 20 µM | > 20 µM | > 20 µM | > 20 µM | > 20 µM | COc1cccc(-c2ccc3nc(NC(=O)NCc4nn[nH]n4)cn3n2)c1 [Compound I-292]
